Results taken from patent publication US20240329043A1, “METHOD FOR STRATIFICATION AND TREATMENT OF MULTIPLE SCLEROSIS” (Universität Zurich, priority 2021, published 2024).

Legend:
[1] = test system: CSF-infiltrating CD4+ T cells from MS patients; details: peptide 10 μM, 105 MS patients; for Positive wells % Proliferation: quadruplicates (420 wells per peptide), well positive if SI≥2, 72 h; for Positive patients % Proliferation: patient positive if mean SI of four wells ≥2 and at least 3 of four wells SI≥2
Protocol: CSF-infiltrating CD4+ T cells were expanded with PHA in a single round of stimulation using a previously reported protocol aimed to reduce TCR repertoire bias (Planas et al., 2008, Sci Transl Med, 10(462):eaat4301). 6×10^4 PHA-expanded CSF-infiltrating CD4^+ T cells were seeded in quadruplicate with 2×10^5 irradiated autologous PBMCs as antigen presenting cells and stimulated with peptides (Table 2) at a final concentration of 10 μM and with a T Cell Activation Kit (anti-CD3, anti-CD28, anti-CD2 beads) (Miltenyi Biotec) as positive control.
(§1) Proliferation was measured 72 h after stimulation using 3H-thymidine (Hartmann Analytic, Braunschweig, Germany) as previously reported (Planas et al., 2018). The stimulation index of single wells (SI) was calculated as follows: SI=(cpm well with peptide)/(Mean cpm wells without peptide). A well was considered positive if SI≥2.

[2] = test system: CSF-infiltrating CD4+ T cells from MS patients; details: peptide 10 μM; 105 MS patients, quadruplicates; well positive if IFN-γ≥20 pg/ml
Protocol: 6×10^4 PHA-expanded CSF-infiltrating CD4^+ T cells were seeded in quadruplicate with 2×10^5 irradiated autologous PBMCs as antigen presenting cells and stimulated with peptides (Table 2) at a final concentration of 10 μM and with a T Cell Activation Kit (anti-CD3, anti-CD28, anti-CD2 beads) (Miltenyi Biotec) as positive control.
(§2) Release of IFN-γ was measured using the ELISA MAX™ Deluxe Set Human IFN-γ (Biolegend, San Diego, CA, USA) according to the manufacturer's instructions. A well was considered positive if IFN-γ≥20 pg/ml and a patient was considered positive for a peptide if the mean IFN-γ of the four wells was ≥20 pg/ml and at least 3 of the 4 wells were positive.

[3] = test system: CSF-infiltrating CD4+ T cells from MS patients; assay: Reactivity of CSF-infiltrating CD4+ T cells by proliferation and/or IFN-γ release taken together (responder classification, comparison of readouts); details: of 105 MS patients; main or only reactivity in proliferation and/or IFN-γ release
Protocol: PBMCs were freshly isolated using Ficoll (Eurobio, Germany) density gradient centrifugation. CSF-infiltrating CD4+ T cells were expanded with PHA in a single round of stimulation using a previously reported protocol aimed to reduce TCR repertoire bias (Planas et al., 2008, Sci Transl Med, 10(462):eaat4301). 6×10^4 PHA-expanded CSF-infiltrating CD4^+ T cells were seeded in quadruplicate with 2×10^5 irradiated autologous PBMCs as antigen presenting cells and stimulated with peptides (Table 2) at a final concentration of 10 μM and with a T Cell Activation Kit (anti-CD3, anti-CD28, anti-CD2 beads) (Miltenyi Biotec) as positive control.
as §1, §2

Row | Sequence | Positive wells % Proliferation [1] | Positive patients % Proliferation [1] | Positive wells % IFNγ release [2] | Patients classified as responders to the peptide(s) [3]
1 | AQGTLSKIFKLGGRDSRSGSPMARR (listed as Homo sapiens) [MBP (146-170)] | 0.72% | 0.00% | 3.86% | –
2 | FRFTPFKQAVKETCA (listed as Homo sapiens) [GDP-L-FS (296-310)] | 6.43% | 4.76% | 12.65% | –
3 | LSRFSWGAEGQRPGFGYGG (listed as Homo sapiens) [MBP (111-129)] | 1.20% | 0.96% | 6.75% | –
4 | MEVGWYRPPFSRVVHLYRNGK (listed as Homo sapiens) [MOG (35-55)] | 3.61% | 1.92% | 13.49% | 10.4%
5 | TAQTRALFEKVQPTH (listed as Homo sapiens) [GDP-L-FS (51-65)] | 5.48% | 3.80% | 7.16% | –
6 | KYLATASTMDHARHGFLPRH (listed as Homo sapiens) [MBP (13-32)] | 0.72% | 0.00% | 4.34% | –
7 | PHNSNFGYSYAKRMI (listed as Homo sapiens) [GDP-L-FS (136-150)] | 7.14% | 5.71% | 8.35% | –
8 | GQFRVIGPRHPIRALVGDEV (listed as Homo sapiens) [MOG (1-20)] | 1.20% | 0.00% | 4.58% | –
9 | HCLGKWLGHPDKFVGI (listed as Homo sapiens) [PLP (139-154)] | 1.92% | 0.96% | 3.86% | –
10 | EEDEVSIKEAAEAVV (listed as Homo sapiens) [GDP-L-FS (246-260)] | 6.90% | 4.76% | 8.85% | –
11 | YGCTFTAVIPTNVFG (listed as Homo sapiens) [GDP-L-FS (161-175)] | 7.38% | 6.66% | 6.92% | –
